The values below are quoted from earlier work in patent US20050239746A1, “Pharmaceutical composition” (priority 2002, published 2005).

In data set [1] the test system is isolated guinea pig trachea. Conditions: 0.1M aqueous solution in 40% w/v 2-hydroxypropyl-beta-cyclodextrin.
The conditions of data set [2]: intravenous infusion, 3 g single dose, 8 healthy volunteers.

Turning to `CC(C)c1cccc(C(C)C)c1O` [Propofol, 2,6 di-isopropylphenol], in data set [1], the “muscle relaxant activity compared with the lipid emulsion” value is reported as “three times higher”.
With “2-hydroxypropyl-beta-cyclodextrin [Encapsin-HPB]”, the safety and tolerability result in data set [2] was “safe and well tolerated”.
